Laboratory results published in patent publication US20230271956A1, “AMIDE DERIVATIVES” (Merck Patent GmbH, priority 2020, published 2023).

Assays:
ACSS2 [1] = target: T1, ACSS2 (Homo sapiens, UniProt Q9NR19); assay: Cellular assay of 14C acetate incorporation into histones (IC50 ACSS2 cellular histone); format: cell-based; conditions: HCT-15 cells
T1 construct: endogenous fatty acid synthesis activity in the human HCT-15 cancer cell line; endogenous in cells; host or cells: HCT-15
Procedure, shortened: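 Human HCT-15 cells preincubated 1 h with compound (0.25% DMSO final), then pulsed 3 h with 14C-acetate. Histones were acid-extracted (0.2 M HCl, overnight, 4° C) after Triton lysis in sodium-butyrate buffer; incorporated 14C counted by liquid scintillation (CPM) to give IC50.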

human rec ACSS2 = target: T2, human rec ACSS2 (Homo sapiens, UniProt Q9NR19); assay: Biochemical activity ACSS2 assay (AMP-Glo); conditions: human recombinant ACSS2, AMP-Glo, 180 min at 37° C.
T2 construct: myc (C); purchased Origene
T2 sequence (Q9NR19 whole entry): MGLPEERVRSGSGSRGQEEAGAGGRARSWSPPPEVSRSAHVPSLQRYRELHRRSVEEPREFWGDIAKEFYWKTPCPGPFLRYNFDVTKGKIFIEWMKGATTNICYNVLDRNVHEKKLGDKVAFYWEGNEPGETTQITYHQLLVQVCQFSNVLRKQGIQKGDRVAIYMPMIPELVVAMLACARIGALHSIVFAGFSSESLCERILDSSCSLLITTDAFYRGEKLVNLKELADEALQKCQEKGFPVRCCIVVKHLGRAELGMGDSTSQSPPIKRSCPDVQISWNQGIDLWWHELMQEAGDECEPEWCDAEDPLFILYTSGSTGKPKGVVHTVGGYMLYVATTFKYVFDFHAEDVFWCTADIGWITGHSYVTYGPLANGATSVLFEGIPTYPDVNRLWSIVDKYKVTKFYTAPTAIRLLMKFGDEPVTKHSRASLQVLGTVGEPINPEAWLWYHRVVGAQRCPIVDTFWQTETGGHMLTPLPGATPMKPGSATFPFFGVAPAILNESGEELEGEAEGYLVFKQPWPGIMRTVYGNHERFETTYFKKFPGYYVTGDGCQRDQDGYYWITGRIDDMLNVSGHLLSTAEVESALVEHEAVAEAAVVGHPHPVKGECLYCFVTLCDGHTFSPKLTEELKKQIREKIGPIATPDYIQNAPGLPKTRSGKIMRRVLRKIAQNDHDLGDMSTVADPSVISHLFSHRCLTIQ
Procedure, shortened: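 C-terminal myc-tagged human recombinant ACSS2 (1 nM) reacted with 100 µM ATP, 100 µM CoA and 500 µM acetate (final) in pH 7.5 Hepes buffer for 180 min at 37° C, compound in 10 concentrations from 30 µM. Released AMP detected by AMP-Glo luminescence. IC50 normalised to inhibitor-free reaction and 5 µM reference inhibitor.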

CHO-K1 cells = assay: Micronucleus assay (MNT) in vitro; format: cell-based; parameters: key: A: negative, putative negative (micronuclei detected beyond threshold of 60% cyctotoxicity); B: positive; conditions: 24 hrs treatment, 0.2 µM to 100 µM
Protocol: The in vitro MNT assay is performed in CHO-K1 cells due to their stable and welI-characterized karyotype, high sensitivity and suitability for a high content imaging approach. They have a basal spontaneous micronucleus frequency of 3-4%.
24 hrs after plating CHO-K1 cells are treated with test compounds for 24 hrs (in duplicates; fixed concentration ranges from 0.2 µM to 100 µM in 2-fold dilution steps). After a medium change cells are incubated for 24 hrs with Cytochalasin B to block cytokinesis and are then fixed and nuclei / micronuclei visualized with a DNA stain. Images are acquired with the Molecular Devices high content imagers IXU or IXM and are analyzed with the dedicated MetaXpress software micronucleus module. Criteria for scoring of micronuclei (MN) are the following: • diameter of the MN should be less than ⅓ of the main nucleus • MN should be separated from or marginally overlap with main nucleus (= no blebs) • MN should have similar staining as the main nucleus At least 1000 binucleated cells are evaluated per treatment replicate. Mitomycin C is used as reference stimulator of micronucleus formation. Cytotoxicity is evaluated in parallel and defined by comparing total nuclei count in compound-treated samples to neutral control samples treated with vehicle only (1% DMSO) (100% cytotoxicity means all cells are dead or lost).
A test compound is regarded as POSITIVE if generation of micronuclei and exhibition of less than 60% cytotoxicity at the same concentration can be observed.
Compounds are scored only in the soluble concentration range. Experimental data of the compounds shown in Table 1 in the MNT assay are shown in Table 2 below and classified in the following groups: […]

ACSS2 [2] = target: T1, ACSS2; assay: Cellular assay of 14C acetate incorporation into fatty acids (IC50 ACSS2 cellular lipids); format: cell-based; conditions: HCT-15 cells
Protocol: This protocol describes a cellular assay capable to quantify endogenous fatty acid synthesis activity in the human HCT-15 cancer cell line following the incorporation of extracellularly administered radiolabeled ^14C acetate with a scintillation proximity based read out on extracted fatty acids.
HCT-15 cells were grown in RPMI 1640 (Gibco) supplemented with 2 mM glutamine, 1 mM sodium pyruvate 10 mM HEPES and 10 % FCS (heat-inactivated) passaged every 2-3 days to remain a subconfluent, vital culture. A working cell bank was prepared with each aliquot containing 1x10^7 viable cells. After thawing, these cells are dilute immediately 1:20 in pre-warmed (37° C.) culture medium. Cells are collected by centrifugation at 200 x g for 5 min, and the supernatant is replaced by 30 mL of fresh culture medium per aliquot to obtain a cell suspension containing 350000 cells/ml. From this cell suspension 100 µL are dispersed into each well of a collagen coated 96 well plate, (black, clear bottom, PS, F-bottom, Greiner) and culture for 24 h (37° C., 5% CO2). After incubation the culture medium is removed and the wells are washed once with 100 µL PBS++ (supplemented with Mg^2+/ Ca^2+, Gibco) and 50 µL assay medium (RPMI 1640 + 10 mM HEPES) are added to each well. Compounds serial dilutions are prepared from 10 mM stock solutions in DMSO using a fixed dilution factor (usually 1:3). After preparation of the dilution series in DMSO, the individual dilutions are further diluted in the assay medium. This working dilution is prepared such, that the concentration is 7x of the final concentration in the assay. The maximal DMSO concentration in the final assay is 0.1%.
To each well 10 µL compound working dilution or DMSO blank are added and the cells are cultured for 2 h (37° C., 5% CO2). Then 10 µL AlamarBlue reagent (Invitrogen) containing 14 µCi/mL ^14C-acetate (Perkin Elmer) are added to each well (70 µl total volume) and cells are again cultured for 2 h. Cell viability is verified by measuring the AlamarBlue fluorescence (Tecan Safire, ex: 544 nm / em: 590 nm). After incubation the culture medium is removed and the wells are carefully washed once with cold 100 µL PBS++. For cell lysis and fatty acid recovery 50 µl 0.1 M NaOH and 0.1 % Triton-X100 are added per well. The plate is sealed with PlateLoc (clear peelable heat seal, Agilent) and incubate at 70° C. for 16-24 h. After cooling to room temperature, the plates are centrifuged for 1 min at 1000 rpm and the plate seals are removed. For acidification 150 µL 0.1 M HCl are added to each well, mixed and 150 µL of the mixture are transferred into a 96 well FlashPlate (Perkin Elmer). The plates are sealed with TopSeaI-a (Perkin Elmer). To allow for the fatty acid binding to the well surfaces the plates are incubate for 4 h at 70° C. After cooling to room temperature, the plates are centrifuged for 1 min at 1000 rpm and stored for 0.5-2 h at room temperature in the dark. Radioactivity from ^14C incorporation into fatty acids in the wells is measured as CPM count in a MicroBeta scintillation counter (Perkin Elmer).

T1 sequence (Q9NR19 whole entry): as above

In the case of `CCc1c(C(O)(c2ccccc2)c2ccccc2)nc2cc(F)c(C(=O)Nc3cnn(CC)c3)cn12` [Compound 15, 3-Ethyl-7-fluoro-2-(hydroxy-diphenylmethyl)-imidazo[1,2-a]pyridine-6-carboxylic acid (1-ethyl-1H-pyrazol-4-yl)-amide], the IC50 (ACSS2 [1]) is reported as 10 to 100 nM, the IC50 (human rec ACSS2) is reported as 10 to 100 nM and the MNT (CHO-K1 cells) is reported as “A”.
For `CCc1c(C(O)(c2ccccc2)c2ccn(C)n2)nc2cc(OC)c(C(=O)Nc3ncn(CC)n3)cn12` (single isomer, unassigned) [Compound 21, 3-Ethyl-2-[hydroxy-(1-methyl-1H-pyrazol-3-yl)-phenyl-methyl]-7-methoxy-imidazo[1,2-a]pyridine-6-carboxylic acid (1-ethyl-1H-[1,2,4]triazol-3-yl)-amide], the IC50 (human rec ACSS2) was 100 to 10000 nM and the MNT (CHO-K1 cells) was “A”.
`CCc1c(C(O)(c2ccccc2)c2ccccn2)nc2cc(OC)c(C(=O)Nc3ncn(CC)n3)cn12` (single isomer, unassigned) [Compound 18, 3-ethyl-N-(1-ethyl-1,2,4-triazol-3-yl)-2-[hydroxy-phenyl-(2-pyridyl)methyl]-7-methoxy-imidazo[1,2-a]pyridine-6-carboxamide] was tested, and the IC50 (ACSS2 [1]) was 100 to 10000 nM, the IC50 (human rec ACSS2) was 100 to 10000 nM and the MNT (CHO-K1 cells) was “A”.
`CCc1c(C(O)(c2ccccc2)c2ccn(C)n2)nc2cc(OC)c(C(=O)Nc3ncn(CC)n3)cn12` (single isomer, unassigned) [Compound 22, 3-Ethyl-2-[hydroxy-(1-methyl-1H-pyrazol-3-yl)-phenyl-methyl]-7-methoxy-imidazo[1,2-a]pyridine-6-carboxylic acid (1-ethyl-1H-[1,2,4]triazol-3-yl)-amide] was tested, and the IC50 (ACSS2 [1]) was 10 to 100 nM, the IC50 (human rec ACSS2) was 10 to 100 nM and the MNT (CHO-K1 cells) was “A”.
With `CCc1c(C(O)(c2ccccc2F)c2ccccc2F)nn2cc(OC)c(C(=O)Nc3ncn(CC)n3)cc12` [Compound 7, 2-[Bis-(2-fluoro-phenyl)-hydroxy-methyl]-3-ethyl-6-methoxy-pyrazolo[1,5-a]pyridine-5-carboxylic acid (1-ethyl-1H-[1,2,4]triazol-3-yl)-amide] the IC50 (ACSS2 [1]) was 1 to 10 nM, the IC50 (human rec ACSS2) was 1 to 10 nM and the MNT (CHO-K1 cells) was “A”.
`CCn1cnc(NC(=O)c2cc3c(nc2OC)nc(C(O)(c2ccccc2)c2ccccn2)n3CC)n1` (racemic) [Compound 69, 1-ethyl-N-(1-ethyl-1H-1,2,4-triazol-3-yl)-2-[hydroxy(phenyl)(pyridin-2-yl)methyl]-5-methoxy-1H-imidazo[4,5-b]pyridine-6-carboxamide] showed an IC50 (ACSS2 [2]) of 1 to 10 nM, an IC50 (ACSS2 [1]) of 0.01 to 1 nM and an IC50 (human rec ACSS2) of 1 to 10 nM.
Work on `CCn1c(C(O)(c2ccccc2)c2ccccn2)nc2nc(OC)c(C(=O)Nc3ncn(CCOC)n3)cc21` (racemic) [Compound 65, 1-ethyl-2-[hydroxy(phenyl)(pyridin-2-yl)methyl]-5-methoxy-N-[1-(2-methoxyethyl)-1H-1,2,4-triazol-3-yl]-1H-imidazo[4,5-b]pyridine-6-carboxamide] yielded an IC50 (ACSS2 [2]) of 10 to 100 nM, an IC50 (ACSS2 [1]) of 1 to 10 nM and an IC50 (human rec ACSS2) of 100 to 10000 nM.
In the case of `CCc1c(C(O)(c2ccccc2F)c2ccccc2F)nc2cc(Cl)c(C(=O)Nc3cnn(CC)c3)cn12` [Compound 29, 2-[Bis-(2-fluoro-phenyl)-hydroxy-methyl]-7-chloro-3-ethyl-imidazo[1,2-a]pyridine-6-carboxylic acid (1-ethyl-1H-pyrazol-4-yl)-amide], the IC50 (ACSS2 [1]) is reported as 10 to 100 nM, the IC50 (human rec ACSS2) is reported as 10 to 100 nM and the MNT (CHO-K1 cells) is reported as “A”.
For `CCc1coc(NC(=O)c2cc3c(nc2OC)nc(C(O)(c2ccccc2)c2ccccc2)n3CC)n1` [Compound 59, 1-ethyl-N-(4-ethyl-1,3-oxazol-2-yl)-2-(hydroxydiphenylmethyl)-5-methoxy-1H-imidazo[4,5-b]pyridine-6-carboxamide], the IC50 (ACSS2 [2]) was 0.01 to 1 nM, the IC50 (ACSS2 [1]) was 0.01 to 1 nM and the IC50 (human rec ACSS2) was 1 to 10 nM.
For `CCn1cnc(NC(=O)c2cc3c(nc2OC)nc(C(O)(c2ccccc2)c2ccc(C)s2)n3CC)n1` (racemic) [Compound 51, 1-ethyl-N-(1-ethyl-1H-1,2,4-triazol-3-yl)-2-[hydroxy(5-methylthiophen-2-yl)phenylmethyl]-5-methoxy-1H-imidazo[4,5-b]pyridine-6-carboxamide], the IC50 (ACSS2 [2]) was 1 to 10 nM, the IC50 (ACSS2 [1]) was 0.01 to 1 nM and the IC50 (human rec ACSS2) was 1 to 10 nM.
